According to patent publication US8049038B2, “Carnitine conjugates of adamantanamines derivatives as dual prodrugs for various uses” (priority 2006, dated 2011):

Legend:
[1] = Toxicity observed in mice after subcutaneous administration in the NMDA test; format: in vivo; conditions: male NIH-Swiss mice; 120 mg/kg SC; n=8 mice/group
Description: (§1) Memantine (30 mg/kg; SC) was used as a positive control in each experiment and there were n=8 mice/group for all conditions.

NMDA receptors = test: NMDA-induced seizure activity and lethality in mice (in vivo test for NMDA antagonist activity); conditions: male NIH-Swiss mice, 30 min before NMDA 200 mg/kg IP
Text: Compounds 3-(3,5-dimethyladamantan-1-ylcarbamoyl)-(R)-2-hydroxypropyl)-trimethyl ammonium chloride [Formula 1(B); R1 and R2 are CH3; n=0], and 3-benzyloxycarbonyl-(R)-2-{[(3,5-dimethyladamantan-1-ylcarbamoyl)-propionyloxy]propyl}-trimethyl ammonium bromide [Formula 4(B); R1 and R2 are CH3; n=0; R3, R4, R5, R6 are hydrogen; and R^2 is a benzyl group] were selected for in vivo testing in mice, since both are potential prodrugs for memantine and L-carnitine through in vivo enzymatic hydrolysis of either an amide or ester linkages. Since memantine has N-methyl-D-aspartate (NMDA) antagonist properties, it was assumed that the above compounds would share these properties and therefore a test was utilized that identifies NMDA antagonist activity in vivo. Briefly, this test measures seizure activity and lethality in mice produced by the administration of NMDA […] which block these parameters in a dose-dependent manner (see Leander, J. D., et al., Brain Res. 448, 115-120 (1988), N-methyl-D-aspartate acid-induced lethality in mice: selective antagonism by phencyclidine-like drugs; Parsons, C. G., et al., Neuropharmacol. 34, 1239-1258 (1995).
as §1

Compound | toxicity [1] | activity in NMDA-induced seizure/lethality test (NMDA receptors; 60 mg/kg SC) | time to lethality (NMDA receptors; 120 mg/kg SC, observed 30 min) | time to produce clonic seizures (NMDA receptors; 90 mg/kg SC, observed 30 min) | time to produce death (NMDA receptors; 90 mg/kg SC, observed 30 min)
CC12CC3CC(C)(C1)CC(NC(=O)C[C@@H](O)C[N+](C)(C)C)(C3)C2.[Cl-] [[3-(3,5-Dimethyl-adamantan-1-ylcarbamoyl)-(R)-2-hydroxy-propyl]-trimethylammonium chloride] | tremors, lethality in n=3 mice | inactive | slightly increased | – | –
CC12CC3CC(C)(C1)CC(NC(=O)CCC(=O)O[C@H](CC(=O)OCc1ccccc1)C[N+](C)(C)C)(C3)C2.[Br-] [{3-Benzyloxycarbonyl-(R)-2-[3-(3,5-Dimethyladamantan-1-ylcarbamoyl)-propionyloxy]-propyl}-trimethylammonium bromide] | – | – | – | markedly increased | markedly increased
